Paper PMC8479088, “Thiocysteine lyases as polyketide synthase domains installing hydropersulfide into natural products and a hydropersulfide methyltransferase” (Nature Communications, 2021)

Legend:
LnmJ-SH = target: T1, LnmJ-SH (Streptomyces atroolivaceus, UniProt Q8GGP2); assay: pyruvate release, OPD derivatization, HPLC; type: biochemical; details: 0.2 mM PLP, 20 mM KCl, 28 °C
T1 construct: E. coli, plasmid pBS3109, published procedure; PLP-dependent

GnmT-SH = test system: T2, GnmT-SH; assay: pyruvate release, OPD derivatization, HPLC; type: biochemical, Streptomyces sp. CB01883; details: 0.2 mM PLP, 20 mM KCl, 28 °C
T2 construct: N-terminal His6 tag (same procedure as GnmP), E. coli, plasmid pBS21022; PLP-dependent

WsmR-SH = test system: T3, WsmR-SH; assay: pyruvate release, OPD derivatization, HPLC; type: biochemical, Streptomyces sp. CB02120-2; details: 0.2 mM PLP, 20 mM KCl, 28 °C
T3 construct: N-terminal His6 tag (same procedure as GnmP), E. coli, plasmid pBS22010; PLP-dependent

GnmP [1] = test system: T4, GnmP; assay: HPLC of methylated product […], WsmR-SH coupled; type: biochemical, Streptomyces sp. CB01883; details: 7 generated in situ from 9 as surrogate substrate by 220 µM WsmR-SH; 2 mM SAM; 50 mM sodium phosphate pH 8.0; 28 °C; methods print substrate range in mM
T4 construct: N-terminal His6-tagged GnmP, E. coli BL21(DE3), plasmid pBS21021

GnmP [2] = test system: T4, GnmP; assay: HPLC of S-methylated product; type: biochemical, Streptomyces sp. CB01883; details: 2 mM SAM; 50 mM sodium phosphate pH 8.0; 28 °C

T1 sequence (Q8GGP2 entry or part of it): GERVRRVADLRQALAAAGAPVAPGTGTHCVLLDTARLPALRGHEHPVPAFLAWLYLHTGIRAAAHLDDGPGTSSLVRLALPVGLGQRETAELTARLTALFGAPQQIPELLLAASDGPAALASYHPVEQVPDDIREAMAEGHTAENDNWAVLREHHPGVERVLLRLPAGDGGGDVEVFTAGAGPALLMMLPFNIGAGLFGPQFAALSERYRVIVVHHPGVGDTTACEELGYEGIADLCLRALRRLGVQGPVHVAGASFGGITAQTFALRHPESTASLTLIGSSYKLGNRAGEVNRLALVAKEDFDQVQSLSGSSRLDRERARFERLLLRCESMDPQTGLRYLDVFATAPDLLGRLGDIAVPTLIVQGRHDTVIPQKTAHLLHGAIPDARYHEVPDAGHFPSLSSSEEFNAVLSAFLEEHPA

Work on L-cysteinyl-GNM B adduct [compound 9] yielded a Km (LnmJ-SH; Tris-HCl pH 8.5) of 7.04 ± 0.84 mM, a Km (GnmT-SH; 50 mM sodium phosphate pH 8.0) of 3.2 ± 0.3 mM and a Km (WsmR-SH; 50 mM sodium phosphate pH 8.0) of 1.45 ± 0.12 mM.
Work on GNM P [compound 7] yielded a Km (GnmP [1]) of 0.00245 ± 0.00041 mM.
Molecule `CC(=O)NCCSC(=O)CC(C)(C)SC[C@H](N)C(=O)O` [compound 16, N-acetylcysteamine thioester (SNAC) of a truncated L-cysteine-polyketide adduct] has a Km (LnmJ-SH; 50 mM sodium phosphate pH 7.2) of 69 ± 11 mM, a Km (GnmT-SH; 50 mM sodium phosphate pH 7.2) of 41 ± 5 mM and a Km (WsmR-SH; 50 mM sodium phosphate pH 7.2) of 54 ± 10 mM.
Work on GNM B [compound 4] yielded a Km (GnmP [2]) of 0.0121 ± 0.0022 mM.
For `CC(=O)NCCSC(=O)CC(C)(C)SSC[C@H](N)C(=O)O` [compound 17, SNAC of a truncated L-thiocysteine-polyketide adduct], the Km (LnmJ-SH; 50 mM sodium phosphate pH 7.2) was 9 ± 0.9 mM, the Km (GnmT-SH; 50 mM sodium phosphate pH 7.2) was 7.7 ± 1.2 mM and the Km (WsmR-SH; 50 mM sodium phosphate pH 7.2) was 6.6 ± 0.7 mM.
